The IC50 is the concentration at which inhibition is half-maximal. Lower therefore signals greater potency.

The source of these data is patent US5698563A, “Bis-[hydrazones]” (Alteon Inc., priority 1995, dated 1997).

Structures can show the parent of a compound that is named as a salt.

For data set [1], the system named is cross-linking of glycated bovine serum albumin (AGE-BSA) to the rat tail tendon collagen. Nature of the data set: Inhibition of cross-linking of glycated bovine serum albumin (AGE-BSA) to rat tail tendon collagen coated 96-well plate (ELISA). It counts as biochemical. The settings on record: 4 h, pH 7.4. The procedure: The following method was used to evaluate the ability of the compounds of the present invention to inhibit the cross-linking of glycated bovine serum albumin (AGE-BSA) to the rat tail tendon collagen coated 96-well plate.
The AGE-BSA was prepared by incubating BSA at a concentration of 200 mg per ml with 200 mM glucose in 0.4M sodium phosphate buffer, pH 7.4 at 37° C. for 12 weeks. The glycated BSA was then extensively dialyzed against phosphate buffer solution (PAS) for 48 hours with additional 5 times buffer exchanges. The rat tail tendon collagen coated plate was blocked first with 300 μl of superbloc blocking buffer (Pierce #37515X) for one hour. The blocking solution was removed from the wells by washing the plate twice with PAS-Tween 20 solution (0.05% Tween 20) using a NUNC-multiprobe or Dynatech ELISA-plate washer. Cross-linking of AGE-BSA (1 to 10 μg per well depending on the batch of AGE-BSA) to rat tail tendon collagen coated plate was performed with and without the testing compound dissolved in PAS buffer at pH 7.4 at the desired concentrations by the addition of 50 μl each of the AGE-BSA diluted in PAS or in the testing compound at 37° C. for 4 hours. The unbrowned BSA in PAS buffer with or without testing compound were added to the separate wells as the blanks. The un-cross-linked AGE-BSA was then removed by washing the wells three times with PAS-Tween buffer. The cross-linked AGE-BSA to the tail tendon coated plate was then quantitated by the polyclonal antibody raised against AGE-RNase. After a one-hour incubation period, AGE antibody was removed by washing 4 times with PAS-Tween.
The bound AGE antibody was then detected with the addition of horseradish peroxidase-conjugated secondary antibody, e.g., goat anti-rabbit immunoglobulin and incubation for 30 minutes. The substrate of 2,2-azino-di(3-ethylbenzthiazoline sulfonic acid) (ABTS chromogen) (Zymed #00-2011) was added. The reaction was allowed for an additional 15 minutes and the absorbance was read at 410 nm in a Dynatech plate reader.
The % inhibition of each test compound was calculated as follows.
% inhibition={[Optical density (without compound)-optical density (with
compound)]/optical density (without compound)]}100%
The IC50 relative inhibition by various test compounds at 10 Mm is as follows: […]

Data set [2] has as its system glomerular basement membrane. The settings on record: streptozotocin-diabetic rat; Brownlee et al., 1988; cited from earlier work.
The subject of data set [3] is red blood cells. The conditions noted are these: in vivo, diabetic rabbits; 100 mg/kg by oral gavage; cited from earlier work.
For data set [4], the system named is aortic wall protein cross-linking. The conditions noted are these: diabetic rats; cited from earlier work.
In data set [5] the test system is immunoglobulin trapping in the kidney. The conditions noted are these: Brownlee et al., Diabetes 1986; cited from earlier work.
Data set [6] relates to dental pellicle. The conditions noted are these: use of chlorhexidine; cited from earlier work.
The subject of data set [7] is gelatin, i.e., collagen. Nature of the data set: Surface browning experiment: gelatin/paper disks in glucose-6-phosphate. The settings on record: Peridex at a final concentration of 0.04% chlorhexidine; 100 Mm glucose-6-phosphate, one week at 50° C., pH 7.4. The procedure:
To further study the ability of inhibitors of nonenzymatic browning to prevent the discoloration of protein on a surface, such as that which occurs on the tooth surface, the following surface browning experiment is performed. As a substitute for a pellicle-covered tooth surface, unexposed and developed photographic paper is used to provide a fixed protein (gelatin, i.e., collagen) surface on a paper backing. Five millimeter circles are punched and immersed for one week at 50° C. in a solution of 100 Mm glucose-6-phosphate in a 0.5M phosphate buffer, Ph 7.4, containing 3 Mm sodium azide. Glucose-6-phosphate is a sugar capable of participating in nonenzymatic browning at a more rapid rate than glucose. In addition to the glucose-6-phosphate, chlorhexidine and/or a compound of Formula I are included. After incubation, the gelatin/paper disks are rinsed with water, observed for brown color, and photographed.

Data set [8] relates to Maillard reaction. The conditions noted are these: cited from earlier work; for catalysis of browning reactions in vitro: Nordbo, J. Dent. Res., 1979.
For data set [9], the system named is RNAase. The settings on record: free lysine; Eble et al., 1983; cited from earlier work.

In turn, `C1CCC(=NNC2=NCCN2)C(=NNC2=NCCN2)C1` [1,2-cyclohexanedione bis(2-hydrazino-2-imidazoline hydrazone)dihydrobromidedihydrate] registered an IC50 in data set [1] of 10 µM.
`C1CN=C(NN=C2CCCCC2=NNC2=NCCCN2)NC1` [1,2-cyclohexanedione bis(2-tetrahydropyrimidine)hydrazone dihydrobromide] yielded a half-maximal inhibitory concentration (IC50) in data set [1] of 6.7 µM.
Still for that read-out and setting: as for `C1=CC(=NNC2=NCCN2)C=CC1=NNC1=NCCN1` [1,4-benzoquinone bis(2-hydrazino-2-imidazoline hydrazone) dihydrobromide], the figure is 20 µM; as for `C1CNC(NN=C2CCC(=NNC3=NCCN3)CC2)=N1` [1,4-cyclohexane dione bis(2-hydrazino-2-imidazoline hydrazone]dihydrobromide dihydrate], 100 µM; as for `CC(=NNC1=NCCCN1)C(C)=NNC1=NCCCN1` [2,3-butanedione bis(2-tetrahydropyrimidine)hydrazone dihydrobromide], 4.1 µM.
Compound `CCCC(=NNC1=NCCCN1)C(C)=NNC1=NCCCN1` [2,3-hexanedione bis(2-tetrahydropyrimidine)hydrazone dihydrobromide] had a half-inhibitory concentration (IC50) in [1] of 33 µM.
Same read-out and setting: as for `C(=NNC1=NCCN1)c1cc2ccccc2cc1C=NNC1=NCCN1` [2,3-naphthalene dialdehyde bis(2-hydrazino-2-imidazoline hydrazone)dihydrobromide dihydrate], the figure is 30 µM; as for `CC(CC(C)=NNC1=NCCN1)=NNC1=NCCN1` [2,4-pentanedione bis(2-hydrazino-2-imidazoline hydrazone)dihydrobromide], 40 µM.
For the compound `N=C(N)NN` [aminoguanidine], the “intervention in the development of diabetic nephropathy” value in data set [2] is given as “intervenes in the development of diabetic nephropathy”. For the same compound, the “diabetes-induced changes in the deformability of red blood cells” value in data set [3] was “has been shown to prevent it in vivo”. In addition, the “aortic wall protein cross-linking” value in [4] is given as “diminishes aortic wall protein cross-linking”. In [5], the “immunoglobulin trapping in the kidney” value is reported as “reduction of immunoglobulin trapping in the kidney”.
Consider `[H]/N=C(\N/C(=N/[H])NCCCCCCNC(=N)NC(=N)Nc1ccc(Cl)cc1)Nc1ccc(Cl)cc1` [chlorhexidine], for which the dental pellicle entry in data set [6] is “increased dental pellicle”. Also, in data set [7], the “browning of gelatin disks with chlorhexidine” value was “significant browning”. Moreover, the “catalysis of browning reactions in vitro” value in data set [8] is recorded as “catalyze browning reactions in vitro”. For the same compound, the “color formation in mixtures containing a sugar derivative and a source of amino groups” value in data set [8] (attributed to the Maillard reaction) is reported as “increased color formation”.
`c1coc(C(=NNC2=NCCN2)C(=NNC2=NCCN2)c2ccco2)c1` [furyl bis (2-hydrazino-2-imidazoline hydrazone) dihydrobromide] yielded a 50% inhibitory concentration (IC50) in data set [1] of 20 µM.
Same read-out and setting: next, `N=C(N)NN=CC(=NNC(=N)N)c1ccco1` [furyl glyoxal bis (guanyl hydrazone)dihydrochloride dihydrate]: 310 µM; `C(=NNC1=NCCN1)C(=NNC1=NCCN1)c1ccco1` [furyl glyoxal bis(2-hydrazino-2-imidazoline hydrazone) dihydrobromide dihydrate]: 120 ± 100 µM.
In data set [1], `OCCN1CCCN=C1NN=CC(=NNC1=NCCCN1CCO)c1ccco1` [furyl glyoxal bis[1-(2-hydroxyethyl)-2-hydrazino-1,4,5,6-tetrahydropyrimidine hydrazone]dimethanesulfonate dihydrate] showed an IC50 of 20 µM.
With `OCCN1CCN=C1NN=CC(=NNC1=NCCN1CCO)c1ccco1` [furyl glyoxal bis[1-(2-hydroxyethyl)-2-hydrazino-2-imidazoline hydrazone]dimethanesulfonate monohydrate], the IC50 in data set [1] was found to be 920 ± 260 µM.
Take `NCCCC[C@H](N)C(=O)O` [lysine]: the “competition with lysine on RNAase for binding of glycosylated protein” value in [9] is “would compete with the lysine on RNAase for the binding of glycosylated protein”.
Take `CC(C=NNC1=NCCCN1)=NNC1=NCCCN1` [methyl glyoxal bis(2-hydrazino-1,4,5,6-tetrahydropyrimidine hydrazone)dihydrobromide]: half-maximal inhibition in data set [1] (IC50) required 840 ± 120 µM.
Consider `CC(C=NNC1=NCCN1)=NNC1=NCCN1` [methyl glyoxal bis(2-hydrazino-2-imidazoline hydrazone) dihydrobromide], for which the IC50 in [1] was determined as 2040 ± 50 µM.
Consider `CC(C=NNC1=NCCCN1CCO)=NNC1=NCCCN1CCO` [methyl glyoxal bis[1-(2-hydroxyethyl)-2-hydrazino-1,4,5,6-tetrahydropyrimidine hydrazone]dimethanesulfonate], for which the IC50 in [1] was 170 ± 110 µM.
Compound `CC(C=NNC1=NCCN1CCO)=NNC1=NCCN1CCO` [methyl glyoxal bis[1-(2-hydroxyethyl)-2-hydrazino-2-imidazoline hydrazone]dimethanesulfonate] had a concentration for half-maximal inhibition (IC50) in [1] of 320 ± 70 µM.
`CC(C=NNC(=N)NCCCN(C)C)=NNC(=N)NCCCN(C)C` [methyl glyoxal bis[N-3-dimethylaminopropyl)hydrazinecarboximidamide hydrazone]tetrahydrobromide] gave an IC50 in data set [1] of 220 ± 50 µM.
Still for that read-out and setting: next, `CC(C=NNC(=N)NCC(C)(C)CN(C)C)=NNC(=N)NCC(C)(C)CN(C)C` [methyl glyoxal bis[N-(2,2-dimethyl-3-dimethylaminopropyl)hydrazinecarboximidamide hydrazone]tetrahydrobromide]: 440 ± 60 µM; `CCc1nnc(NN=CC(C)=NNc2nnc(CC)n2N)n1N` [methyl glyoxal-bis-(4-amino-3-hydrazino-5-ethyl-1,2,4-triazole)hydrazone dihydrochloride]: 120 µM.
On the same count and under the same terms, as for `CC(C=NNc1nnc(C(C)C)n1N)=NNc1nnc(C(C)C)n1N` [methyl glyoxal-bis-(4-amino-3-hydrazino-5-isopropyl-1,2,4-triazole)hydrazone dihydrochloride], the figure is 110 µM; as for `CC(C=NNC(=N)NCCN1CCOCC1)=NNC(=N)NCCN1CCOCC1` [methylglyoxal bis{N-[2-(4-morpholino)ethyl]hydrazinecarboximidamide hydrazone}tetrahydrobromide], 2200 ± 130 µM.
On to `C(=NNC1=NCCN1)c1ccccc1C=NNC1=NCCN1` [o-phthalicdicarboxaldehyde bis(2-hydrazino-2-imidazoline hydrazone)dihydrobromide monohydrate], for which, in data set [1], the half-inhibitory concentration (IC50) stood at 430 ± 80 µM.
In data set [1], `N=C(N)NN=CC(=NNC(=N)N)c1ccccc1` [phenyl glyoxal bis(guanylhydrazone)dihydrochloride] gave an IC50 of 340 ± 190 µM.
The same measure, in the same setting: next, `OCCN1CCCN=C1NN=CC(=NNC1=NCCCN1CCO)c1ccccc1` [phenyl glyoxal bis[1-(2-hydroxyethyl)-2-hydrazino-1,4,5,6-tetrahydropyrimidine hydrazone]dimethanesulfonate dihydrate]: 70 ± 100 µM.
Take `OCCN1CCN=C1NN=CC(=NNC1=NCCN1CCO)c1ccccc1` [phenyl glyoxal bis[1-(2-hydroxyethyl)-2-hydrazino-2-imidazoline hydrazone]dimethanesulfonate dihydrate]: the midpoint of inhibition in data set [1], the IC50, lay at 90 ± 130 µM.
Turning to benzalkonium chloride, in [8], the “catalysis of browning reactions in vitro” value is “catalyze browning reactions in vitro”.
